Patent US10874745B2, “Antimicrobial peptides and methods of treating gram-negative pathogens: polar and non-polar face analogs” (priority 2017, dated 2020)
Converted amounts (≈) assume the structure as drawn. “And” between values parts separate entries of the source, which are not always exact repeats. Identical values can stand only once. Non-standard residues stand in square brackets, D forms with d. Residues, ends and D or L forms follow the SMILES beside them. dDab = NCC[C@@H](N)C(=O)O

Tests used:
[1] = test system: A. baumannii clinical isolates; assay: MIC, microtiter dilution in Mueller Hinton medium; format: cell-based; settings: geometric mean, 7 clinical isolates of A. baumannii
Source text: Gram-Negative Bacterial Strains used in this Study: All the A. baumannii strains used in this study were 1) obtained from the collection of Dr. Anthony A. Campagnari at the University of Buffalo and originally isolated from different patients and organs/tissues (strain 649, blood; strain 689, groin; strain 759, gluteus; strain 884, axilla; strain 985, pleural fluid); 2) were purchased from the American Type Culture Collection (ATCC, Manassas, Va., USA) (strain ATCC 17978, fatal meningitis; and strain ATCC 19606, urine); 3) obtained from MERCK (M89941, M89949, M89951, M89952, M89953, M89955 and M89963). These seven A. baumannii strains were resistant to polymyxin B and polymyxin E (Colistin).
(§2) Measurement of Antimicrobial Activity (MIC): The minimal inhibitory concentration (MIC) is defined as the lowest peptide concentration that inhibited bacterial growth. MICs were measured by a standard microtiter dilution method in Mueller Hinton (MH) medium. Briefly, cells were grown overnight at 37° C. in MH broth and were diluted in the same medium. […] The plates were incubated at 37° C. for 24 h, and the MICs were determined.

[2] = test system: clinical isolates of Pseudomonas aeruginosa; format: cell-based; settings: geometric mean, 6 clinical isolates of P. aeruginosa
Method: as §2

[3] = Hemolytic activity; format: cell-based, human; settings: 1% human erythrocytes (red blood cells), pH 7.4; 50% hemolysis of human red blood cells after 18 hours at 37° C.; read-out: HC50
Method: (§1) Hemoglobin release was determined spectrophotometrically at 570 nm. […] […] […] With the peptides used in this study the inventors used the HC30/MIC ratio value to calculate the therapeutic index.

[4] = test system: human red blood cells; assay: Hemolytic activity; format: cell-based; settings: for HC50: 50% hemolysis of human red blood cells after 18 hours at 37° C.; for Hemolytic activity HC30: 18 h
Method: as §1

[5] = test system: A. baumannii strains resistant to Polymyxin B and Colistin; format: cell-based; settings: geometric mean, 7 A. baumannii strains resistant to polymyxin B and colistin
[6] = test system: A. baumannii strain 649; format: cell-based, Acinetobacter baumannii
Source text: A critical component to the systemic use of AMPs to treat bacterial infections is the extent of AMP binding to serum proteins. In addition, since only the unbound AMP is available to interact with the therapeutic target, the extent of serum binding can have significant effects on efficacy. […] This assay estimates the in vivo bioavailability of the AMPs. […] An increase in MIC in serum is attributed to inhibition of antimicrobial activity due to serum protein binding.

## CC(=O)N[C@H](C)C(=O)N[C@H](CC(C)C)C(=O)N[C@H](CCCCN)C(=O)N[C@H](CCCCN)C(=O)N[C@H](CC(C)C)C(=O)N[C@H](CC(C)C)C(=O)N[C@H](CCCCN)C(=O)N[C@@H](C(=O)N[C@H](CC(C)C)C(=O)N[C@H](CO)C(=O)N[C@H](CCCCN)C(=O)N[C@H](C)C(=O)N[C@H](CCCNC(=N)N)C(=O)N[C@H](C)C(=O)N[C@H](C)C(=O)N[C@H](CCCNC(=N)N)C(=O)N[C@H](CC(C)C)C(=O)N[C@H](CCCCN)C(=O)N[C@@H](C(=O)N[C@H](CC(C)C)C(=O)N[C@H](CC(C)C)C(=O)N[C@H](CCCCN)C(=O)N[C@H](C)C(=O)N[C@H](CC(C)C)C(=O)N[C@H](CO)C(=O)N[C@H](CCCCN)C(N)=O)[C@H](C)O)[C@H](C)O [D41(Arg13/Arg16)]
[1]
  MICGM: 0.6 µM
[2]
  MICGM: 1.1 µM
[3]
  HC50 at 18 h: 7.2 µM and 21 µg/mL
[4]
  HC50: 7.2 µM
[5]
  MICGM: 0.8 µM

## CC(=O)N[C@H](C)C(=O)N[C@H](CC(C)C)C(=O)N[C@H](CCCCN)C(=O)N[C@H](CCCCN)C(=O)N[C@H](CC(C)C)C(=O)N[C@H](CC(C)C)C(=O)N[C@H](CCCCN)C(=O)N[C@@H](C(=O)N[C@H](CC(C)C)C(=O)N[C@H](CO)C(=O)N[C@H](CCCCN)C(=O)N[C@H](C)C(=O)N[C@H](CCN)C(=O)N[C@H](C)C(=O)N[C@H](C)C(=O)N[C@H](CCN)C(=O)N[C@H](CC(C)C)C(=O)N[C@H](CCCCN)C(=O)N[C@@H](C(=O)N[C@H](CC(C)C)C(=O)N[C@H](CC(C)C)C(=O)N[C@H](CCCCN)C(=O)N[C@H](C)C(=O)N[C@H](CC(C)C)C(=O)N[C@H](CO)C(=O)N[C@H](CCCCN)C(N)=O)[C@H](C)O)[C@H](C)O [D41(Dbu13/Dbu16)] (Ac-[dA][dL][dK][dK][dL][dL][dK][dT][dL][dS][dK][dA][dDab][dA][dA][dDab][dL][dK][dT][dL][dL][dK][dA][dL][dS][dK]-NH2; N-terminus and C-terminus assumed)
[1]
  MICGM: 0.6 µM
[2]
  MICGM: 0.8 µM
[3]
  HC50 at 18 h: 24.3 µM and 68 µg/mL
[4]
  HC50: 24.3 µM
[5]
  MICGM: 0.5 µM

## CC(=O)N[C@H](C)C(=O)N[C@H](CC(C)C)C(=O)N[C@H](CCCCN)C(=O)N[C@H](CCCCN)C(=O)N[C@H](CC(C)C)C(=O)N[C@H](CC(C)C)C(=O)N[C@H](CCCCN)C(=O)N[C@@H](C(=O)N[C@H](CC(C)C)C(=O)N[C@H](CO)C(=O)N[C@H](CCCCN)C(=O)N[C@H](C)C(=O)N[C@H](CN)C(=O)N[C@H](C)C(=O)N[C@H](C)C(=O)N[C@H](CN)C(=O)N[C@H](CC(C)C)C(=O)N[C@H](CCCCN)C(=O)N[C@@H](C(=O)N[C@H](CC(C)C)C(=O)N[C@H](CC(C)C)C(=O)N[C@H](CCCCN)C(=O)N[C@H](C)C(=O)N[C@H](CC(C)C)C(=O)N[C@H](CO)C(=O)N[C@H](CCCCN)C(N)=O)[C@H](C)O)[C@H](C)O [D41(Dpr13/Dpr16)]
[1]
  MICGM: 0.6 µM
[2]
  MICGM: 1.3 µM
[3]
  HC50 at 18 h: 22.6 µM and 62.5 µg/mL
[4]
  HC50: 22.6 µM
[5]
  MICGM: 0.7 µM

## CC(=O)N[C@H](C)C(=O)N[C@H](CC(C)C)C(=O)N[C@H](CCCCN)C(=O)N[C@H](CCCCN)C(=O)N[C@H](CC(C)C)C(=O)N[C@H](CC(C)C)C(=O)N[C@H](CCCCN)C(=O)N[C@@H](C(=O)N[C@H](CC(C)C)C(=O)N[C@H](CO)C(=O)N[C@H](CCCCN)C(=O)N[C@H](C)C(=O)N[C@H](CCCCN)C(=O)N[C@H](C)C(=O)N[C@H](C)C(=O)N[C@H](CCCCN)C(=O)N[C@H](CC(C)C)C(=O)N[C@H](CCCCN)C(=O)N[C@@H](C(=O)N[C@H](CC(C)C)C(=O)N[C@H](CC(C)C)C(=O)N[C@H](CCCCN)C(=O)N[C@H](C)C(=O)N[C@H](CC(C)C)C(=O)N[C@H](CO)C(=O)N[C@H](CCCCN)C(N)=O)[C@H](C)O)[C@H](C)O [D41(Lys13/Lys16)]
[1]
  MICGM: 0.4 µM
[2]
  MICGM: 0.8 µM
[3]
  HC50 at 18 h: 13.7 µM and 39 µg/mL
[4]
  HC50: 13.7 µM
[5]
  MICGM: 0.4 µM

## CC(=O)N[C@H](C)C(=O)N[C@H](CC(C)C)C(=O)N[C@H](CCCCN)C(=O)N[C@H](CO)C(=O)N[C@H](CC(C)C)C(=O)N[C@H](CC(C)C)C(=O)N[C@H](C)C(=O)N[C@@H](C(=O)N[C@H](CC(C)C)C(=O)N[C@H](CO)C(=O)N[C@H](CCCCN)C(=O)N[C@H](C)C(=O)N[C@H](CCCCN)C(=O)N[C@H](CCCCN)C(=O)N[C@H](CCCCN)C(=O)N[C@H](CCCCN)C(=O)N[C@H](CC(C)C)C(=O)N[C@H](CCCCN)C(=O)N[C@@H](C(=O)N[C@H](CC(C)C)C(=O)N[C@H](CC(C)C)C(=O)N[C@H](C)C(=O)N[C@H](C)C(=O)N[C@H](CC(C)C)C(=O)N[C@H](CO)C(=O)N[C@H](CCCCN)C(N)=O)[C@H](C)O)[C@H](C)O [Peptide D35]
[6]
  MIC, 25% human serum: 1.4 µM (≈ 3.93 µg/mL)
  MIC, No serum: 0.4 µM (≈ 1.12 µg/mL)
[4]
  Hemolytic activity HC30: 30 µM

## CC(=O)N[C@H](C)C(=O)N[C@H](CC(C)C)C(=O)N[C@H](C)C(=O)N[C@H](CO)C(=O)N[C@H](CC(C)C)C(=O)N[C@H](CC(C)C)C(=O)N[C@H](CCCCN)C(=O)N[C@@H](C(=O)N[C@H](CC(C)C)C(=O)N[C@H](CO)C(=O)N[C@H](CCCCN)C(=O)N[C@H](C)C(=O)N[C@H](CCCCN)C(=O)N[C@H](CCCCN)C(=O)N[C@H](CCCCN)C(=O)N[C@H](CCCCN)C(=O)N[C@H](CC(C)C)C(=O)N[C@H](CCCCN)C(=O)N[C@@H](C(=O)N[C@H](CC(C)C)C(=O)N[C@H](CC(C)C)C(=O)N[C@H](CCCCN)C(=O)N[C@H](C)C(=O)N[C@H](CC(C)C)C(=O)N[C@H](CO)C(=O)N[C@H](C)C(N)=O)[C@H](C)O)[C@H](C)O [Peptide D36]
[6]
  MIC, 25% human serum: 0.7 µM (≈ 1.97 µg/mL)
  MIC, No serum: 0.4 µM (≈ 1.12 µg/mL)
[4]
  Hemolytic activity HC30: 61 µM

## CC(=O)N[C@H](C)C(=O)N[C@H](CC(C)C)C(=O)N[C@H](CCCCN)C(=O)N[C@H](CO)C(=O)N[C@H](CC(C)C)C(=O)N[C@H](CC(C)C)C(=O)N[C@H](CCCCN)C(=O)N[C@@H](C(=O)N[C@H](CC(C)C)C(=O)N[C@H](CO)C(=O)N[C@H](CCCCN)C(=O)N[C@H](C)C(=O)N[C@H](C)C(=O)N[C@H](C)C(=O)N[C@H](C)C(=O)N[C@H](C)C(=O)N[C@H](CC(C)C)C(=O)N[C@H](CCCCN)C(=O)N[C@@H](C(=O)N[C@H](CC(C)C)C(=O)N[C@H](CC(C)C)C(=O)N[C@H](CCCCN)C(=O)N[C@H](C)C(=O)N[C@H](CC(C)C)C(=O)N[C@H](CO)C(=O)N[C@H](CCCCN)C(N)=O)[C@H](C)O)[C@H](C)O [Peptide D37]
[6]
  MIC, 25% human serum: >92.8 µM
  MIC, No serum: 2.9 µM (≈ 7.81 µg/mL)
[4]
  Hemolytic activity HC30: 2.6 µM

## CC(=O)N[C@H](C)C(=O)N[C@H](CC(C)C)C(=O)N[C@H](CCCCN)C(=O)N[C@H](CO)C(=O)N[C@H](CC(C)C)C(=O)N[C@H](CC(C)C)C(=O)N[C@H](CCCCN)C(=O)N[C@@H](C(=O)N[C@H](CC(C)C)C(=O)N[C@H](CO)C(=O)N[C@H](C)C(=O)N[C@H](C)C(=O)N[C@H](C)C(=O)N[C@H](CCCCN)C(=O)N[C@H](CCCCN)C(=O)N[C@H](C)C(=O)N[C@H](CC(C)C)C(=O)N[C@H](C)C(=O)N[C@@H](C(=O)N[C@H](CC(C)C)C(=O)N[C@H](CC(C)C)C(=O)N[C@H](CCCCN)C(=O)N[C@H](C)C(=O)N[C@H](CC(C)C)C(=O)N[C@H](CO)C(=O)N[C@H](CCCCN)C(N)=O)[C@H](C)O)[C@H](C)O [Peptide D38]
[6]
  MIC, 25% human serum: >92.8 µM
  MIC, No serum: 0.7 µM (≈ 1.89 µg/mL)
[4]
  Hemolytic activity HC30: 2.8 µM

## CC(=O)N[C@H](C)C(=O)N[C@H](CC(C)C)C(=O)N[C@H](CCCCN)C(=O)N[C@H](CO)C(=O)N[C@H](CC(C)C)C(=O)N[C@H](CC(C)C)C(=O)N[C@H](C)C(=O)N[C@@H](C(=O)N[C@H](CC(C)C)C(=O)N[C@H](CO)C(=O)N[C@H](CCCCN)C(=O)N[C@H](C)C(=O)N[C@H](C)C(=O)N[C@H](CCCCN)C(=O)N[C@H](CCCCN)C(=O)N[C@H](C)C(=O)N[C@H](CC(C)C)C(=O)N[C@H](CCCCN)C(=O)N[C@@H](C(=O)N[C@H](CC(C)C)C(=O)N[C@H](CC(C)C)C(=O)N[C@H](C)C(=O)N[C@H](C)C(=O)N[C@H](CC(C)C)C(=O)N[C@H](CO)C(=O)N[C@H](CCCCN)C(N)=O)[C@H](C)O)[C@H](C)O [Peptide D39]
[6]
  MIC, 25% human serum: >92.8 µM
  MIC, No serum: 1.4 µM (≈ 3.77 µg/mL)
[4]
  Hemolytic activity HC30: 2.8 µM

## CC(=O)N[C@H](C)C(=O)N[C@H](CC(C)C)C(=O)N[C@H](C)C(=O)N[C@H](CO)C(=O)N[C@H](CC(C)C)C(=O)N[C@H](CC(C)C)C(=O)N[C@H](CCCCN)C(=O)N[C@@H](C(=O)N[C@H](CC(C)C)C(=O)N[C@H](CO)C(=O)N[C@H](CCCCN)C(=O)N[C@H](C)C(=O)N[C@H](C)C(=O)N[C@H](CCCCN)C(=O)N[C@H](CCCCN)C(=O)N[C@H](C)C(=O)N[C@H](CC(C)C)C(=O)N[C@H](CCCCN)C(=O)N[C@@H](C(=O)N[C@H](CC(C)C)C(=O)N[C@H](CC(C)C)C(=O)N[C@H](CCCCN)C(=O)N[C@H](C)C(=O)N[C@H](CC(C)C)C(=O)N[C@H](CO)C(=O)N[C@H](C)C(N)=O)[C@H](C)O)[C@H](C)O [Peptide D40]
[6]
  MIC, 25% human serum: >92.8 µM
  MIC, No serum: 2.9 µM (≈ 7.81 µg/mL)
[4]
  Hemolytic activity HC30: 2.8 µM
